From PMC7898037, “Improving mitochondria and ER stability helps eliminate upper motor neuron degeneration that occurs due to mSOD1 toxicity and TDP‐43 pathology” (Clinical and Translational Medicine, 2021)

Assays:
[1] = system: UMNs of prpTDP‐43^A315T‐UeGFP mice; test: EM quantification of mitochondria and ER in UMNs, prpTDP‐43^A315T‐UeGFP mice; format: in vivo
Procedure: (§1) hSOD1^G93A‐UeGFP, prpTDP‐43^A315T‐UeGFP and WT‐UeGFP mice were weighed and the required NU‐9 dose per weight was calculated (20 or 100 mg/kg), which was administered once daily by oral gavage, starting at postnatal day (P)60 and continuing until P120. Animals from the untreated group received the vehicle (NMP and olive oil) only. For oral administration purposes, 20 ga × 38 mm plastic feeding tubes were used (Instech Laboratories, Inc). The gavage tip was inserted into the mouth directly over the tongue and into the pharynx. While observing the swallowing reflex, the tip was safely and smoothly slid into the esophagus. Once the administration was completed, the gavage tip was pulled straight out.
Mice were perfused with EM grade 4% PFA. One hemisphere of the brain was sectioned at 50 µm thickness coronally on a vibratome (Leica VT1000S, Leica Inc., Nussloch, Germany). The sections were postfixed in 2% PFA and 0.5% glutaraldehyde for 1 h, they were cryoprotected with glycerol–dimethylsulfoxide (DMSO) mixture followed by freeze–thaw at least four times, and treated with 1% sodium borohydride. They were then treated with 0.3% H2O2–10% methanol in TBS (100 mM Tris–HCl and 150 mM NaCl, pH 7.6) and 5% normal goat serum–1% bovine serum albumin in TBS to block nonspecific binding of primary antibody. This mixture was incubated overnight with rat anti‐Ctip2 antibody (1:500, Thermo Fisher Scientific, Rockford, IL, USA). Biotinylated goat anti‐rat IgG (1:500, Vector Laboratories, Burlingame, CA, USA) was used as the secondary antibody, and diaminobenzidine (DAB) was applied as the chromogen (ABC Elite kit, Vector Laboratories, Burlingame, CA, USA). Sections were then postfixed in buffered 2% osmium tetroxide (OsO4) (Electron Microscopy Sciences, Hatfield, PA, USA), rinsed with distilled water, and stained in 1% uranyl acetate (Electron Microscopy Sciences, Hatfield, PA, USA), again rinsed with distilled water, dehydrated in ascending grades of ethanol with transition fluid propylene oxide (Electron Microscopy Sciences, Hatfield, PA, USA), embedded in the resin mixture with Embed 812 (Electron Microscopy Sciences, Hatfield, PA, USA), and cured in a 60°C oven for 3 days. The sections in which primary motor cortex was present and visible under bright‐field illumination on a dissecting scope were selected. Approximately, 5‐mm‐wide × 7‐mm‐long pieces of the motor cortex from these sections were dissected under the microscope mounted on a resin block and were sectioned on a Leica Ultracut UC6 ultramicrotome (Leica Inc., Nussloch, Germany). The motor cortex was further trimmed, and only layer 5 was kept intact for preparing ultrathin sections. UMNs were identified based on the presence of Ctip2 immunohistochemistry (DAB) in their nuclei (Figure S1). Seventy‐nanometer‐thin sections were collected on 200‐mesh copper–palladium grids. Grids were counterstained with 8% radioactive depleted uranyl acetate and 0.2% lead citrate. Grids were examined on FEI Tecnai Spirit G2 TEM (FEI company, Hillsboro, OR, USA), and digital images were captured on a FEI Eagle camera.
EM images of Betz cells of normal control and patients, Ctip2‐positive (Ctip2^+) UMN of WT, and hSOD1^G93A‐UeGFP and prpTDP‐43^A315T‐UeGFP mice (Figure S1) were acquired from 70‐nm ultrathin sections of the motor cortex, and EM images were taken on FEI Tecnai Spirit G2 TEM using FEI Eagle camera. Mitochondria were quantified, as described previously. ^34 Mitochondria with intact outer and inner membrane and with intact cristae were considered healthy. Mitochondria with morphological defects, such as broken outer and/or inner membrane and cristae, were counted individually and were reported as percentage of defective mitochondria. ER that are disintegrated and that display profound expansion were considered unhealthy. Length of ER cisternae was measured using line tool of ImageJ software (NIH) upon calibration for pixels/micrometer using set scale function. […]

[2] = system: UMNs in the motor cortex of WT‐UeGFP mice; test: UMN quantification in motor cortex, WT‐UeGFP mice; format: in vivo
Procedure: as §1
Since UMNs are genetically labeled with eGFP expression in the motor cortex of WT‐UeGFP, hSOD1^G93A‐UeGFP, and prpTDP‐43^A315T‐UeGFP mice, UMNs were identified based on the GFP expression. Quantitative analyses were performed on three matched rostrocaudal sections spanning the motor cortex. Three images per subject were taken to capture a 4× objective filed that encompass layer 5 of the motor cortex. An inverted epifluorescent Eclipse TE2000‐E microscope (Nikon) with the same exposure time and intensity was used. UMNs were counted only if their soma and apical dendrite were both visualized in the same 50‐µm thick section. Images were analyzed in ImageJ (NIH) using the Find maxima processing command to determine the local maxima within a predetermined region of interest that circumscribes the layer 5 of the motor cortex. A universal noise tolerance, which ignores the local maxima corresponding to background and autofluorescence, was applied to all images.

[3] = design: method as in PMID 22189273, PMID 22837812; conditions: cited from earlier work
[4] = system: hERG channel; conditions: cited from earlier work
[5] = prpTDP-43A315T-UeGFP mice, NU-9 100 mg/kg/day
[6] = prpTDP-43A315T-UeGFP untreated minus NU-9 100 mg/kg/day, Tukey's multiple comparisons test
[7] = prpTDP‐43^A315T‐UeGFP mice, 100 mg/kg/day oral gavage P60–P120
[8] = WT-UeGFP mice, NU-9 100 mg/kg/day
[9] = WT-UeGFP vehicle minus NU-9 100 mg/kg/day, Tukey's multiple comparisons test

C[C@H](Oc1cc(C(F)(F)F)cc(C(F)(F)F)c1)C1CC(=O)CC(=O)C1 [NU‐9]
Mean Diff., Fig. 6J, TDP-43 vs. TDP-43 -NU9 ([1]; prpTDP43A315T-UeGFP untreated minus NU-9 100 mg/kg/day, Tukey's multiple comparisons test): -0.8333 | Fig. 6G group mean (total number of mitochondria/UMN) ([1]; prpTDP-43A315T-UeGFP (NU-9 100 mg/kg/day)): 31.85 | Mean, Fig. 6H (EM quantification in UMNs) [1, 5]: 86.77 | Mean, Fig. 6I (EM quantification in UMNs) [1, 5]: 31.16 | Mean, Fig. 6J (EM quantification in UMNs) [1, 5]: 1.37 | Mean Diff., Fig. 6H, TDP-43 vs. TDP-43 -NU9 [1, 6]: -64.89 | Mean Diff., Fig. 6I, TDP-43 vs. TDP-43 -NU9 [1, 6]: -18.7 | average number of intact ER cisternae in UMNs [1, 7]: 36 ± 2 ER cisternae/UMN/section | average percentage of healthy mitochondria [1, 7]: 87% ± 1% | total mitochondria per UMN per section [1, 7]: 32 ± 3 mitochondria/UMN/section | Mean, Fig. 5E (UMN quantification in motor cortex) [2, 8]: 65.5 | Mean, Fig. 7H (UMN quantification in motor cortex) [2, 8]: 65.5 | Mean Diff., Fig. 5E, G Vehicle vs. G NU-9 (100) [2, 9]: -6.183 | Mean Diff., Fig. 7H, G Vehicle vs. G NU-9 (100) [2, 9]: -6.183 | average number of UMNs per section in the motor cortex ([2]; WT‐UeGFP mice, 100 mg/kg/day oral gavage P60–P120): 66 ± 1 UMNs | PAMPA‐BBB P e [3]: 8.11 × 10^–6 cm/s | PAMPA‐BBB classification [3]: CNS+ | inhibition of the hERG channel [4]: little inhibition | hERG antagonism ([4]; up to 30 µM): No inhibition up to 30 µM
